From ChEMBL document CHEMBL2424607, “Synthesis, characterization, and computational studies on phthalic anhydride-based benzylidene-hydrazide derivatives as novel, potential anti-inflammatory agents” (2013)

Columns and labels:
Format in all cases: functional
Rattus norvegicus [1] = experiment: Antiinflammatory activity against carrageenan-induced paw edema rat model assessed as inhibition of hind paw swelling administered 1 hr before carrageenan challenge measured after 2 hrs by plethysmometer relative to control
Rattus norvegicus [2] = experiment: Antiinflammatory activity against carrageenan-induced paw edema rat model assessed as inhibition of hind paw swelling administered 1 hr before carrageenan challenge measured after 1 hr by plethysmometer relative to control
Rattus norvegicus [3] = experiment: Antiinflammatory activity against carrageenan-induced paw edema rat model assessed as inhibition of hind paw swelling administered 1 hr before carrageenan challenge measured after 3 hrs by plethysmometer relative to control
Mus musculus [4] = species: Mus musculus; experiment: Analgesic activity in Swiss albino mouse assessed as duration of thermal-stimulus induced tail flick latency after 90 mins by tail immersion method (reference value: 3.87 +/- 0.10 seconds)
Mus musculus [5] = species: Mus musculus; experiment: Analgesic activity in Swiss albino mouse assessed as duration of thermal-stimulus induced tail flick latency after 60 mins by tail immersion method (reference value: 3.01 +/- 0.04 seconds)
Mus musculus [6] = species: Mus musculus; experiment: Analgesic activity in Swiss albino mouse assessed as duration of thermal-stimulus induced tail flick latency after 30 mins by tail immersion method (reference value: 2.13 +/- 0.03 seconds)
Mus musculus [7] = experiment: Analgesic activity in Swiss albino mouse assessed as duration of thermal-stimulus induced tail flick latency at 10 mg/kg after 30 mins by tail immersion method (reference value: 2.13 +/- 0.03 seconds)
Mus musculus [8] = experiment: Analgesic activity in Swiss albino mouse assessed as duration of thermal-stimulus induced tail flick latency at 10 mg/kg after 90 mins by tail immersion method (reference value: 3.87 +/- 0.10 seconds)
Rattus norvegicus [9] = experiment: Antiinflammatory activity against carrageenan-induced paw edema rat model assessed as inhibition of hind paw swelling at 10 mg/kg administered 1 hr before carrageenan challenge measured after 2 hrs by plethysmometer relative to control
Rattus norvegicus [10] = experiment: Antiinflammatory activity against carrageenan-induced paw edema rat model assessed as inhibition of hind paw swelling at 10 mg/kg administered 1 hr before carrageenan challenge measured after 3 hrs by plethysmometer relative to control
Rattus norvegicus [11] = experiment: Antiinflammatory activity against carrageenan-induced paw edema rat model assessed as inhibition of hind paw swelling at 10 mg/kg administered 1 hr before carrageenan challenge measured after 1 hr by plethysmometer relative to control
Mus musculus [12] = experiment: Analgesic activity in Swiss albino mouse assessed as duration of thermal-stimulus induced tail flick latency at 10 mg/kg after 60 mins by tail immersion method (reference value: 3.01 +/- 0.04 seconds)

Structure (SMILES) | inhibition (INH) (Rattus norvegicus [1]) [%] | inhibition (INH) (Rattus norvegicus [2]) [%] | inhibition (INH) (Rattus norvegicus [3]) [%] | Time (Mus musculus [4]) [s] | Time (Mus musculus [5]) [s] | Time (Mus musculus [6]) [s] | Time (Mus musculus [7]) [s] | Time (Mus musculus [8]) [s] | inhibition in vivo at 10 mg/kg (Rattus norvegicus [9]) [%] | inhibition in vivo at 10 mg/kg (Rattus norvegicus [10]) [%] | inhibition in vivo at 10 mg/kg (Rattus norvegicus [11]) [%] | Time (Mus musculus [12]) [s]
COc1cc(/C=N/NC(=O)CN2C(=O)c3ccccc3C2=O)ccc1O | 53.6 | 32.1 | 64 | 9.09 | 6.22 | 4.53 | – | – | – | – | – | –
COc1cccc(/C=N/NC(=O)CN2C(=O)c3ccccc3C2=O)c1 | 49.2 | 28.5 | 61.4 | 4.92 | 3.94 | 3.21 | – | – | – | – | – | –
O=C(CN1C(=O)c2ccccc2C1=O)N/N=C/c1ccc(O)cc1 | 43.4 | 23.2 | 50.6 | 4.12 | 3.83 | 3.42 | – | – | – | – | – | –
O=C(CN1C(=O)c2ccccc2C1=O)N/N=C/c1ccccc1[N+](=O)[O-] | 49.2 | 30.3 | 57.3 | 6.88 | 6.29 | 5.35 | – | – | – | – | – | –
COc1cc(/C=N/NC(=O)CN2C(=O)c3ccccc3C2=O)cc(OC)c1OC | 40.5 | 26.7 | 49.4 | 4.21 | 4.04 | 3.83 | – | – | – | – | – | –
O=C(CN1C(=O)c2ccccc2C1=O)N/N=C/c1ccc(Cl)cc1 | 47.8 | 26.7 | 58.6 | 8.91 | 7.13 | 5.61 | – | – | – | – | – | –
Cc1ccc(/C=N/NC(=O)CN2C(=O)c3ccccc3C2=O)cc1 | 24.6 | 17.8 | 25.3 | 4.5 | 3.86 | 3.32 | – | – | – | – | – | –
O=C([O-])Cc1ccccc1Nc1c(Cl)cccc1Cl.[Na+] [DICLOFENAC SODIUM] | – | – | – | – | – | – | 3.06 | 10.93 | 60.8 | 68 | 39.8 | 5.06
O=C(CN1C(=O)c2ccccc2C1=O)N/N=C/c1ccccc1 | 15.9 | 14.2 | 17.3 | 3.89 | 3.22 | 2.83 | – | – | – | – | – | –
O=C(CN1C(=O)c2ccccc2C1=O)N/N=C/c1ccc([N+](=O)[O-])cc1 | 43.4 | 19.6 | 54.6 | 6.83 | 6.45 | 5.39 | – | – | – | – | – | –
